These are literature values, as cited in publication PMC6482886 (Chemical Science, 2019).

For one series, the target named is T1, hDMX (Homo sapiens, UniProt O15151).
T1 sequence (O15151 1-392): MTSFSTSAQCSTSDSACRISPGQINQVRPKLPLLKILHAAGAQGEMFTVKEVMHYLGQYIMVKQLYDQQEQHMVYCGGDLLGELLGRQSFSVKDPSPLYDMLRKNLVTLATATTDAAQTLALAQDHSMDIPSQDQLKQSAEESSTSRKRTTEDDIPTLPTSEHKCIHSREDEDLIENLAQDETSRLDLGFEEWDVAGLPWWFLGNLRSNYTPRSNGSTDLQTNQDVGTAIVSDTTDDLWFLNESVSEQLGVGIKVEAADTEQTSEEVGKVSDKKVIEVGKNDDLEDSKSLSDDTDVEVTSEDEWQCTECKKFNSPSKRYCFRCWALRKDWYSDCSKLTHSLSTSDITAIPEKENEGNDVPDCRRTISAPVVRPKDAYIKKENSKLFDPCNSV

Turning to `N#Cc1c2ccc(N)cc2nc2cc(N)ccc12` [CTX1], the “cellular IC50 / cellular activity reported in the literature” value is on record as “tens to hundreds of micromolar range”.

`CCOc1cc(/C=C2/C(=O)N(c3ccccc3)N=C2C)cc(Cl)c1OCC(=O)OC` [SJ-172550]: the “binding affinity to hDMX compared with p53” value on hDMX is “less affinity to hDMX than p53”.
